The results in this text go back to patent US20050261171A1, “Combination cancer therapy” (Pharmacyclics, Inc., priority 2001, published 2005).

Where two headings read alike, the source gives them in different places.

The subject of assay [1] is murine Lewis lung carcinoma cell line (LLC1). As to the kind of experiment: BCNU and MGd, tumor regrowth delay in subcutaneous Lewis lung carcinoma model. The assay is classed as in vivo, Female C57BL mice. The note with it: control group 11.45 days.
Assay [2] has the same test system. As to the kind of experiment: Taxol and MGd, tumor regrowth delay in subcutaneous Lewis lung carcinoma model. The assay is classed as in vivo, Female C57BL mice. The note with it: control group 11.40 days.
Assay [3] has as its system murine Lewis lung cancer. As to the kind of experiment: Carboplatin and MGd, murine Lewis lung cancer in C57 mice. The assay is classed as in vivo. The note with it: Group #2: 20 μmol/kg MGd on day 7 post tumor inoculation; control group 12.14 days.
Assay [4] concerns murine Lewis lung carcinoma cell line (LLC1). The assay is classed as in vivo, Female C57BL mice. The note with it: control group 12.11 days.

In turn, `O=NN(CCCl)C(=O)NCCCl` [BCNU, carmustine, reference compound] yielded a median survival in assay [1] (Group #3: 15 mg/kg BCNU ip on days 10, 12 and 14) of 10.46 days. In assay [2] (Group #3: 24 μmol/kg of Taxol iv on days 7, 9, 11 and 13), `CC(=O)O[C@H]1C(=O)[C@@]2(C)[C@H]([C@H](OC(=O)c3ccccc3)[C@]3(O)C[C@H](OC(=O)[C@H](O)[C@@H](NC(=O)c4ccccc4)c4ccccc4)C(C)=C1C3(C)C)[C@]1(OC(C)=O)CO[C@@H]1C[C@@H]2O` [Taxol, paclitaxel, reference compound] yielded a median survival of 11.55 days. Turning to Motexafin Gadolinium [MGd], the median survival in assay [2] (Group #2: 20 μmol/kg MGd iv on days 7, 9, 11 and 13) is given as 12.90 days; in assay [1] (Group #2: 20 μmol/kg MGd iv on days 10, 12 and 14) it was 10.04 days; in assay [3] it was 12.42 days; in assay [4] (Group #2: 20 μmol/kg MGd iv thrice at three day intervals after tumor established) it was 13.07 days. In turn, bleomycin [reference compound] displayed a median survival in assay [4] (Group #3: 10 units/kg bleomycin iv thrice at three day intervals after tumor established) of 14.73 days.
